The source made the active and inactive calls. No cut-off for these calls is given here.
Key:
[1] = Cytotoxicity against human MV-3 cells after 72 hrs by MTT assay; type: functional, cell-based; settings: MV-3, 72 h
HCT-116 [2] = assay: Antitumor activity against human HCT116 cells xenografted in BALB/C mouse assessed as tumor growth inhibition at 2 mg/kg, ip for 5 days; type: functional, organism-based
[3] = molecular target: DNA topoisomerase 2-alpha (Homo sapiens) (UniProt P11388); assay: Inhibition of Top2alpha (unknown origin)-mediated pBR322 DNA cleavage using ethidium bromide staining at 100 uM after 30 mins by electrophoresis analysis
[4] = molecular target: T1, DNA topoisomerase 1 (Homo sapiens) (UniProt P11387); assay: Inhibition of Top1 (unknown origin)-mediated pBR322 DNA cleavage using ethidium bromide staining at 100 uM after 15 mins by electrophoresis analysis
T1 sequence (whole entry): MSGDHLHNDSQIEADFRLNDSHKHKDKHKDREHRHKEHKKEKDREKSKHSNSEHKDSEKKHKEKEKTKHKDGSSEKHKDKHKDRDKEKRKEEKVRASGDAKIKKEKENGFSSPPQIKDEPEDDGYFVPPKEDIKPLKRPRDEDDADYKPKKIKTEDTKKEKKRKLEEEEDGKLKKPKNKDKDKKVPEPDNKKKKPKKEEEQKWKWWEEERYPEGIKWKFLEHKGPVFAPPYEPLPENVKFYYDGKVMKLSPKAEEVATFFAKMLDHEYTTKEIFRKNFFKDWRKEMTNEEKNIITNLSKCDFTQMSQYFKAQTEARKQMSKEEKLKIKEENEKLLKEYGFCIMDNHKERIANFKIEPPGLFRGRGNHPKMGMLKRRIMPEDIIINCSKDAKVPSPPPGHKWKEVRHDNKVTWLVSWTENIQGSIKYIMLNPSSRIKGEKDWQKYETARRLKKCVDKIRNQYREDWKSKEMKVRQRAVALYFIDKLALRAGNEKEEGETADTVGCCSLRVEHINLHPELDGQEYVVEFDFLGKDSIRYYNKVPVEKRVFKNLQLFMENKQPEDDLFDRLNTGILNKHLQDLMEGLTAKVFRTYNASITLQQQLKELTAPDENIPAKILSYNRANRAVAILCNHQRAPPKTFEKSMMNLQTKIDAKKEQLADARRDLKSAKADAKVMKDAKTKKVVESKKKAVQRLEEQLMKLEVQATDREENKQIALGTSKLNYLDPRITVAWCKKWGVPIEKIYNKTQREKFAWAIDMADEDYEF

[5] = molecular target: T1, DNA topoisomerase 1 (Homo sapiens); assay: Inhibition of Top1 (unknown origin)-mediated pBR322 DNA cleavage using ethidium bromide staining at 50 uM after 15 mins by electrophoresis analysis
A549 [6] = assay: Cytotoxicity against human A549 cells after 72 hrs by MTT assay; type: functional, cell-based; settings: A549, 72 h
[7] = Cytotoxicity against human Bel7404 cells after 72 hrs by MTT assay; type: functional, cell-based; settings: BEL-7404, 72 h
[8] = Cytotoxicity against human SW579 cells after 72 hrs by MTT assay; type: functional, cell-based; settings: SW579, 72 h
Tubulin = assay: Inhibition of brain tubulin (unknown origin) polymerization measured up to 15 to 30 mins; design: species or system Homo sapiens
[9] = molecular target: T1, DNA topoisomerase 1 (Homo sapiens); assay: Inhibition of Top1 (unknown origin)-mediated pBR322 DNA cleavage using ethidium bromide staining at 200 uM after 15 mins by electrophoresis analysis
NCI-H446 = assay: Cytotoxicity against human NCI-H446 cells after 72 hrs by MTT assay; type: functional, cell-based; settings: NCI-H446, 72 h
PC-3 = assay: cells; settings: Homo sapiens, PC-3, 72 h
Description: Cytotoxicity against human PC3 cells after 72 hrs by MTT assay

[10] = Cytotoxicity against human SKHEP1 cells after 72 hrs by MTT assay; type: functional, cell-based; settings: SK-HEP1, 72 h
MDA-MB-435 = assay: Cytotoxicity against human MDA-MB-435 cells after 72 hrs by MTT assay; type: functional, cell-based; settings: MDA-MB-435, 72 h
Tubulin (Homo sapiens) = Tubulin (Homo sapiens) (UniProt P68371+Q9H4B7+P0DPH7+P68366+Q13509+Q71U36+P04350+Q3ZCM7+P07437+P68363+Q9BQE3+Q6PEY2+Q13885+Q9BVA1+Q9BUF5); assay: Inhibition of brain tubulin (unknown origin) polymerization at 5 uM measured up to 15 to 30 mins
K562 = assay: Cytotoxicity against human K562 cells after 72 hrs by MTT assay; type: functional, cell-based; settings: K562, 72 h
HCT-116 [11] = assay: Cytotoxicity against human HCT116 cells after 72 hrs by MTT assay; type: functional, cell-based; settings: HCT-116, 72 h
A549 [12] = assay: Induction of apoptosis in human A549 cells assessed as apoptotic cells at 5 uM after 48 hrs by flow cytometry analysis; type: functional
Mus musculus [13] = assay: Toxicity in human A549 cells xenografted BALB/C mouse assessed as mortality at 2 mg/kg, ip for 5 days; type: organism-based; settings: in vivo, 120 h
Mus musculus [14] = assay: Toxicity in human A549 cells xenografted BALB/C mouse assessed as change in body weight at 2 mg/kg, ip for 5 days; type: organism-based; settings: in vivo, 120 h
A549 [15] = assay: Antitumor activity against human A549 cells xenografted in BALB/C mouse assessed as tumor growth inhibition at 2 mg/kg, ip for 5 days; type: functional, organism-based
A549 [16] = assay: Cell cycle arrest in human A549 cells assessed as accumulation at G2/M phase using propidium iodide staining at 5 uM after 36 hrs by flow cytometry analysis; type: functional
A549 [17] = assay: Cell cycle arrest in human A549 cells assessed as accumulation at G2/M phase using propidium iodide staining at 5 uM after 12 hrs by flow cytometry analysis; type: functional, cell-based
A549 [18] = assay: Induction of apoptosis in human A549 cells assessed as change in cell morphology at 5 uM after 36 hrs by light microscope analysis; type: functional, cell-based

Sequence of DNA topoisomerase 2-alpha (Homo sapiens) (P11388 whole entry): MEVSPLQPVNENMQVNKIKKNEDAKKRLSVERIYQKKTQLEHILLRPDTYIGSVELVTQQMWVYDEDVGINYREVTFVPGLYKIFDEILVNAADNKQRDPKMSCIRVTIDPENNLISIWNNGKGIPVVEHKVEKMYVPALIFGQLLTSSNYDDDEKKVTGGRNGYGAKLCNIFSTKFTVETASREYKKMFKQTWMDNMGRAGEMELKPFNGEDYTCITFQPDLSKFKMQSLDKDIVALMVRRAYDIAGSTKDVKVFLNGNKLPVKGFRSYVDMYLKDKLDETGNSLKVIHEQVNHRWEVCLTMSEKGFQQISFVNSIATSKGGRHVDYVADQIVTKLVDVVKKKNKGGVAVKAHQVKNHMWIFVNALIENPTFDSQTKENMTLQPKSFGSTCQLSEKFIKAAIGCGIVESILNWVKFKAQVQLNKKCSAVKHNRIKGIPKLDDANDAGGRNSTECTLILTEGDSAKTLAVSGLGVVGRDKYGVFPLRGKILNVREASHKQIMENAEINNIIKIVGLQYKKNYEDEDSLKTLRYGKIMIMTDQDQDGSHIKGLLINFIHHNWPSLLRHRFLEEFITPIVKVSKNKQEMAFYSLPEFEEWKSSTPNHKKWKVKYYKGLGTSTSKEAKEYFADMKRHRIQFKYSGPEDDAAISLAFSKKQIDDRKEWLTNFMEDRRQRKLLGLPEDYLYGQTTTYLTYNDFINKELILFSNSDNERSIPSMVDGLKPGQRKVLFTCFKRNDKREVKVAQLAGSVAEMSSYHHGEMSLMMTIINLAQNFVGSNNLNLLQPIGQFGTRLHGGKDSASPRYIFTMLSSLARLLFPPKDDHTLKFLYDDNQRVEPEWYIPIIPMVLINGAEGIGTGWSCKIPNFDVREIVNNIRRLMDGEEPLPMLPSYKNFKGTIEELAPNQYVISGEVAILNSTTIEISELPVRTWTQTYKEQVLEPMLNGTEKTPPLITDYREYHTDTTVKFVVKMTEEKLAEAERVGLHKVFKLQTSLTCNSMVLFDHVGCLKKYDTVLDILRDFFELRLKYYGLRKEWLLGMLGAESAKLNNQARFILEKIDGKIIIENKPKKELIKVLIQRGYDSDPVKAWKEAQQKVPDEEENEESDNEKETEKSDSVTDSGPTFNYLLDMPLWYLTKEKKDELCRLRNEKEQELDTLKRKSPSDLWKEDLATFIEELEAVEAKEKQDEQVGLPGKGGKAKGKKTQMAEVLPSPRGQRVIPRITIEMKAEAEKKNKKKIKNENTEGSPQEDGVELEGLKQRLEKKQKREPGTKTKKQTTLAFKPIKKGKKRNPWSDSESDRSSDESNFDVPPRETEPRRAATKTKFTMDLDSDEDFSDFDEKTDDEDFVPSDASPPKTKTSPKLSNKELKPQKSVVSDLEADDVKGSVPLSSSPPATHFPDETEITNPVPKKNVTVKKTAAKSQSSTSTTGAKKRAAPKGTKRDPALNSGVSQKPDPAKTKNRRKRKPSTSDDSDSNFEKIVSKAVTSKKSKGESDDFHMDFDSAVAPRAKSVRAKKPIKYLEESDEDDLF

Row | inhibition [3] | inhibition [4] | inhibition [5] | inhibition [9] | SMILES | IC50 (A549 [6]) | IC50 (MDA-MB-435) | IC50 (HCT-116 [11]) | other results
1 | Active | Active | Active | Active | O=C1c2cc(Cl)ccc2SC2c3[nH]c4ccc(O)cc4c3CCN12 (centres undefined) | 20 nM | < 3 nM | < 3 nM | IC50 [1]: 1300 nM; growth inhibition (GI) (HCT-116 [2]): Active; IC50 [7]: < 3 nM; IC50 [8]: 6900 nM; IC50 (Tubulin): 4500 nM; IC50 (NCI-H446): > 200000 nM; IC50 (PC-3): 370 nM; IC50 [10]: 2100 nM; inhibition (Tubulin (Homo sapiens)): 63%; IC50 (K562): < 3 nM
2 |  | Active | Active |  | O=C1c2ccccc2S(=O)(=O)C2c3[nH]c4ccccc4c3CCN12 (centres undefined) | > 200000 nM | > 200000 nM | > 200000 nM | 
3 | inactive |  |  |  | O=C1c2ccccc2S(=O)(=O)C2c3[nH]c4ccc(O)cc4c3CCN12 (centres undefined) | > 200000 nM | > 200000 nM | 46000 nM | 
4 | inactive | Active | Active | Active | O=C1c2ccccc2SC2c3[nH]c4ccccc4c3CCN12 (centres undefined) |  |  |  | 
5 |  | Active | Active |  | COc1ccc2c(c1)C(=O)N1CCc3c([nH]c4ccc(OC)cc34)C1S2 (centres undefined) | 11300 nM | 122000 nM | 20000 nM | 
6 | inactive |  |  | Active | O=C1c2ccccc2OC2c3[nH]c4ccc(O)cc4c3CCN12 (centres undefined) | 4000 nM | 1400 nM | 2300 nM | 
7 | inactive |  |  | Active | Nc1ccc2c(c1)C(=O)N1CCc3c([nH]c4ccc(O)cc34)C1O2 (centres undefined) | 29100 nM | 600 nM | 500 nM | 
8 |  | Active | Active |  | O=C1c2cc(F)ccc2SC2c3[nH]c4ccc(O)cc4c3CCN12 (centres undefined) | 1200 nM | < 3 nM | < 3 nM | 
9 | inactive | Active | Active | Active | COc1ccc2c(c1)C(=O)N1CCc3c([nH]c4ccc(O)cc34)C1S2 (centres undefined) | 300 nM | < 3 nM | < 3 nM | IC50 [1]: 1200 nM; IC50 [7]: < 3 nM; IC50 [8]: 7300 nM; IC50 (NCI-H446): > 200000 nM; IC50 (PC-3): 430 nM; IC50 [10]: 2200 nM; IC50 (K562): < 3 nM
10 |  | Active | Active |  | COc1ccc2[nH]c3c(c2c1)CCN1C(=O)c2cc(Cl)ccc2SC31 (centres undefined) | 2300 nM | 44100 nM | 2700 nM | 
11 |  | Active | Active |  | O=C1c2cc(Cl)ccc2SC2c3[nH]c4ccccc4c3CCN12 (centres undefined) | 2100 nM | 38800 nM | 29100 nM | 
12 | Active |  |  | Active | O=C1c2cc(O)ccc2OC2c3[nH]c4ccc(O)cc4c3CCN12 (centres undefined) | 3800 nM | 800 nM | 1200 nM | IC50 [1]: 1200 nM; growth inhibition (GI) (HCT-116 [2]): Active; IC50 [7]: 60 nM; IC50 [8]: 5150 nM; IC50 (NCI-H446): > 200000 nM; IC50 (PC-3): 840 nM; IC50 [10]: 1100 nM; IC50 (K562): < 3 nM
13 |  | Active | Active |  | O=C1c2cccnc2SC2c3[nH]c4ccccc4c3CCN12 (centres undefined) | > 200000 nM | > 200000 nM | > 200000 nM | 

Continued, compound first:

Row | SMILES | inhibition [3] | inhibition [4] | inhibition [5] | inhibition [9] | IC50 (A549 [6]) | IC50 (MDA-MB-435) | IC50 (HCT-116 [11]) | other results
14 | COc1ccc2[nH]c3c(c2c1)CCN1C(=O)c2cc(F)ccc2SC31 (centres undefined) |  | Active | Active |  | 1200 nM | 3900 nM | 6500 nM | 
15 | CCC1=C[C@@H]2CN(C1)Cc1c([nH]c3ccccc13)[C@@](C(=O)OC)(c1cc3c(cc1OC)N(C)[C@H]1[C@@](O)(C(=O)OC)[C@H](OC(C)=O)[C@]4(CC)C=CCN5CC[C@]31[C@@H]54)C2 [VINORELBINE] |  |  |  |  |  |  |  | IC50 (Tubulin): 2000 nM
16 | COc1ccc2[nH]c3c(c2c1)CCN1C(=O)c2cc(Br)ccc2SC31 (centres undefined) |  | Active | Active |  | 8200 nM | 84700 nM | 2700 nM | 
17 | COc1ccc2[nH]c3c(c2c1)CCN1C(=O)c2ccccc2S(=O)(=O)C31 (centres undefined) | Active | Active | Active | Active | > 200000 nM | > 200000 nM | > 200000 nM | 
18 | O=C1c2cc(Cl)ccc2OC2c3[nH]c4ccc(O)cc4c3CCN12 (centres undefined) | inactive |  |  | Active | 5200 nM | 60 nM | < 3 nM | IC50 [1]: 1100 nM; growth inhibition (GI) (HCT-116 [2]): Active; Activity (A549 [12]): 6.7%; Activity (Mus musculus [13]): Non-toxic; Activity (Mus musculus [14]): Non-toxic; IC50 [7]: < 3 nM; growth inhibition (GI) (A549 [15]): Active; IC50 [8]: 5560 nM; IC50 (Tubulin): 5300 nM; IC50 (NCI-H446): > 200000 nM; IC50 (PC-3): 400 nM; Activity (A549 [16]): 63.7%; IC50 [10]: 1800 nM; inhibition (Tubulin (Homo sapiens)): 48%; IC50 (K562): < 3 nM; Activity (A549 [17]): Active; Activity (A549 [18]): Active
19 | O=C1c2cc(O)ccc2SC2c3[nH]c4ccc(O)cc4c3CCN12 (centres undefined) | Active | Active | Active | Active | 700 nM | < 3 nM | < 3 nM | IC50 [1]: 140 nM; growth inhibition (GI) (HCT-116 [2]): Active; IC50 [7]: < 3 nM; IC50 [8]: 3500 nM; IC50 (NCI-H446): 16600 nM; IC50 (PC-3): < 3 nM; IC50 [10]: 490 nM; IC50 (K562): < 3 nM
20 | CC[C@@]1(O)C(=O)OCc2c1cc1n(c2=O)Cc2cc3ccccc3nc2-1 [CAMPTOTHECIN] |  |  |  |  | 100 nM | 1000 nM | 90 nM | IC50 [1]: < 3 nM; IC50 [7]: 140 nM; IC50 [8]: 710 nM; IC50 (NCI-H446): > 200000 nM; IC50 (PC-3): 2500 nM; IC50 [10]: 960 nM; IC50 (K562): < 3 nM
21 | Cc1ccc2c(c1)OC1c3[nH]c4ccc(O)cc4c3CCN1C2=O (centres undefined) |  |  |  |  | 6500 nM | < 3 nM | < 3 nM | Activity (Mus musculus [13]): Non-toxic; Activity (Mus musculus [14]): Non-toxic; growth inhibition (GI) (A549 [15]): Active
22 | O=C1c2ccccc2SC2c3[nH]c4ccc(O)cc4c3CCN12 (centres undefined) | inactive |  |  | Active | 50 nM | < 3 nM | 40 nM | growth inhibition (GI) (HCT-116 [2]): Active; Activity (A549 [12]): 6%; Activity (Mus musculus [13]): Non-toxic; Activity (Mus musculus [14]): Non-toxic; growth inhibition (GI) (A549 [15]): Active; Activity (A549 [16]): 68.2%; Activity (A549 [17]): Active; Activity (A549 [18]): Active
23 | O=C1c2cc(F)ccc2SC2c3[nH]c4ccccc4c3CCN12 (centres undefined) |  | Active | Active |  | > 200000 nM | > 200000 nM | > 200000 nM | 
24 | CC(=O)Nc1ccc2c(c1)C(=O)N1CCc3c([nH]c4ccccc34)C1O2 (centres undefined) |  |  |  |  | 20100 nM | 19600 nM | 5800 nM | 
